Experimental data published in patent US9045524B2, “Selective caspase inhibitors and uses thereof” (NOVAGENESIS FOUNDATION, priority 2009, dated 2015).

How the values were obtained:
Caspase-1 [1] = target: T1, Caspase-1 (Homo sapiens (Human), UniProt P29466); assay: Caspase-1 Inhibitor Drug Screening Kit, fluorometric (AFC liberation); assay type: biochemical; conditions: 30-minute incubation at 37° C.; approximations of the average values; read-out: Caspase enzymatic activity, IC50 (uM) Caspase 1
Target sequence in this assay (P29466 120-404): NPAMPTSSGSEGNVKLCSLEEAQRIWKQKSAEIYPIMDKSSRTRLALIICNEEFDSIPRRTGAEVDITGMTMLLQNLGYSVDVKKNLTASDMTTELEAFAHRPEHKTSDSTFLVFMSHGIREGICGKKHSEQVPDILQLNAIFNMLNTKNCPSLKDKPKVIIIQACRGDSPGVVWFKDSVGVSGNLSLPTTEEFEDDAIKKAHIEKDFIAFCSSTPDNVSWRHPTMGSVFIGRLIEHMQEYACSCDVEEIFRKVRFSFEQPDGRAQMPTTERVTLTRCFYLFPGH
Description: (§3) The level of inhibition of caspase-1, -3, -5, -7, -9 activity was determined by comparison of the relative fluorescence intensity in samples with or without the compound.

Caspase-3 [2] = target: T2, Caspase-3 (Homo sapiens (Human), UniProt P42574); assay: Fluorometric enzymatic assay, active recombinant Caspase-3
Target sequence in this assay (P42574 29-175): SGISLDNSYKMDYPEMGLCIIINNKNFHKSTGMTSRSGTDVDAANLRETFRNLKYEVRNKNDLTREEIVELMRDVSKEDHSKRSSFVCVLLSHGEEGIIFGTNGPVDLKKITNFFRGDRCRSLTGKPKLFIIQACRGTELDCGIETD
Target sequence in this assay (P42574 176-277): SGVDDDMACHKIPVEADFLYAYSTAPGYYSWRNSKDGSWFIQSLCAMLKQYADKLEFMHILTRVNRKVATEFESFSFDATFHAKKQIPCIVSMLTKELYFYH
Description: (§4) Each dilution of the test compounds was tested in duplicates, whereas the DMSO or Z-VAD-FMK controls were tested in triplicates. […] The inhibition efficiency and the IC50 values of the test compounds were then determined by comparing the fluorescence intensity (FI) of the test compounds with that of the DMSO control.

Caspase-9 [3] = target: T3, Caspase-9 (Homo sapiens (Human), UniProt P55211); assay: Caspase-9 Inhibitor Drug Screening Kit, fluorometric (AFC liberation); assay type: biochemical; conditions: 30-minute incubation at 37° C.; approximations of the average values; read-out: Caspase enzymatic activity, IC50 (uM) Caspase 9
Target sequence in this assay (P55211 whole entry): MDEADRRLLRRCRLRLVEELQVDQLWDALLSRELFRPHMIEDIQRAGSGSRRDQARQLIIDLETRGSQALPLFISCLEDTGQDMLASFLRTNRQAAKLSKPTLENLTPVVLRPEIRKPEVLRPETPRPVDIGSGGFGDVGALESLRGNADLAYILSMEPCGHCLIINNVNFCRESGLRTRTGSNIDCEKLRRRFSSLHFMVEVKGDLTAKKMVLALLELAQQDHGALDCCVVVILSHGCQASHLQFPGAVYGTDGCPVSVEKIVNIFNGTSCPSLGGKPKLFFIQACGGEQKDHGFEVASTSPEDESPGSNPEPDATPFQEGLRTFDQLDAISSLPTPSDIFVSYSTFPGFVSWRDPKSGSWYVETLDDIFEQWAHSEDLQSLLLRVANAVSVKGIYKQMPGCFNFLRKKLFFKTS
Description: as §3

Caspase-9 [4] = target: T3, Caspase-9; assay: Fluorometric enzymatic assay, active recombinant Caspase-9; conditions: read-out: IC50 values (μM) Caspase-9; 10-point titration 0.1 nM to 3.3 μM, 30-minute incubation at 37° C.
Target sequence in this assay (P55211 whole entry, looked up, change not shown): as the sequence (P55211 whole entry) above
Target sequence in this assay (P55211 whole entry, looked up, change not shown): as the sequence (P55211 whole entry) above
Description: as §4

Caspase-8 = Caspase-8 (Homo sapiens (Human), UniProt Q14790); assay: Fluorometric enzymatic assay, active recombinant Caspase-8; assay type: biochemical; conditions: 10-point titration 0.1 nM to 3.3 μM, 30-minute incubation at 37° C.; read-out: IC50 values (μM) Caspase-8
Description: (§1) . In brief, each compound was serially diluted for a final test concentration range of 0.1 nM to 3.3 μM (10-point titration). Each active recombinant Caspase (Active Recombinant Caspase Set IV™ (BioVision, Cat# K233-10-25)) was added to the respective wells of the 96-well High Efficiency™ plates (Molecular Devices, Cat#75-000-0005), followed by the addition of the diluted test compounds. DMSO (Final=1%) or Z-VAD-FMK (Caspase-Family Inhibitor, Z-VAD-FMK (BioVision, Cat#1010-100), Final concentration=20 uM) was added in the designated wells as a background control or positive inhibitor control respectively. Each dilution of the test compounds was tested in duplicates, whereas the DMSO or Z-VAD-FMK controls were tested in triplicates. The synthetic peptide substrate specific for each Caspase (BioVision) was then added to the respective wells, which when cleaved by the active caspase releases free AFC that can be quantified by fluorometry. After a 30-minute incubation at 37° C., the plates were read using the Flexstation 3™ with a 400 nm excitation filter and a 505 nm emission filter (cutoff at 495 nm). The inhibition efficiency and the IC50 values of the test compounds were then determined by comparing the fluorescence intensity (FI) of the test compounds with that of the DMSO control.
(§2) The SoftMax Pro Software™ (v5.2 rev C, Molecular Devices) was used for data analysis. The % Inhibition is calculated by: % Inhibition=[FI(DMSO)−FI(test sample)/FI(DMSO)]×100. The % Inhibition vs. Log(concentration) was plotted, and the curve was fitted using the 5-parameter fit of the software.

Caspase-7 [5] = target: T4, Caspase-7 (Homo sapiens (Human), UniProt P55210); assay: Caspase-7 Inhibitor Drug Screening Kit, fluorometric (AFC liberation); assay type: biochemical; conditions: 30-minute incubation at 37° C.; approximations of the average values; read-out: Caspase enzymatic activity, IC50 (uM) Caspase 7
Target sequence in this assay (P55210 whole entry): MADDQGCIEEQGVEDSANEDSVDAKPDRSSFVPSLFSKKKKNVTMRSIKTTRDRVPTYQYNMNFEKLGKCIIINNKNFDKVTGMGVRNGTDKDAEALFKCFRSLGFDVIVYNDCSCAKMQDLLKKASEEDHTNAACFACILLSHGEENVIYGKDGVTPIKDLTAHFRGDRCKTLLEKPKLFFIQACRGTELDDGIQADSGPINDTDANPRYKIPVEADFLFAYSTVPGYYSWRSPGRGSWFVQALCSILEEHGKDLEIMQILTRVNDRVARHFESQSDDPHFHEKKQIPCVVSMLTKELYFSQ
Description: as §3

Caspase-1 [6] = target: T1, Caspase-1; assay: Fluorometric enzymatic assay, active recombinant Caspase-1
Target sequence in this assay (P29466 whole entry, looked up): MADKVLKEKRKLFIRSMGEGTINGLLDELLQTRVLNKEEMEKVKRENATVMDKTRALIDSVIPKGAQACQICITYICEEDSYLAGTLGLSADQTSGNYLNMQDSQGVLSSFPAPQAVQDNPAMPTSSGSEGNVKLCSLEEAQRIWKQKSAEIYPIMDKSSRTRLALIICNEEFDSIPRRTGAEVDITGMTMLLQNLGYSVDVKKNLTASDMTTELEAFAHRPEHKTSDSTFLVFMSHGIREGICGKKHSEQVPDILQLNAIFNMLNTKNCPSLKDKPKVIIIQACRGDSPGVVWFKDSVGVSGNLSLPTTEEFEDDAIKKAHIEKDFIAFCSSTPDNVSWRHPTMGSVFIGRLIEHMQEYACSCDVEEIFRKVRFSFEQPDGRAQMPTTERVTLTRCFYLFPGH
Target sequence in this assay (P29466 whole entry, looked up): as above
Description: as §4

Caspase-5 [7] = target: T5, Caspase-5 (Homo sapiens (Human), UniProt P51878); assay: Caspase-5 Inhibitor Drug Screening Kit, fluorometric (AFC liberation); assay type: biochemical; conditions: 30-minute incubation at 37° C.; approximations of the average values; read-out: Caspase enzymatic activity, IC50 (uM) Caspase 5
Target sequence in this assay (P51878 137-434): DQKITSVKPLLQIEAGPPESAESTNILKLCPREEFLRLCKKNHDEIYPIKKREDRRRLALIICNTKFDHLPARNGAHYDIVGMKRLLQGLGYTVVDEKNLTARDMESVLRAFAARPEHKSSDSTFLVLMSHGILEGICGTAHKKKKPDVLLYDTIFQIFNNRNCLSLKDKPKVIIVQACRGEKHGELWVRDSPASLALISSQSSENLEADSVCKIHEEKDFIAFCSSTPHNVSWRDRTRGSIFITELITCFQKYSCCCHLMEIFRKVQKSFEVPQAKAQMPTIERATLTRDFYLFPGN
Description: as §3

Caspase-7 [8] = target: T4, Caspase-7; assay: Fluorometric enzymatic assay, active recombinant Caspase-7
Target sequence in this assay (P55210 whole entry, looked up): as the sequence (P55210 whole entry) above
Target sequence in this assay (P55210 whole entry, looked up): as the sequence (P55210 whole entry) above
Description: as §4

Caspase-3 [9] = target: T2, Caspase-3; assay: Caspase-3 Inhibitor Drug Screening Kit, fluorometric (AFC liberation); assay type: biochemical
Target sequence in this assay (P42574 29-277): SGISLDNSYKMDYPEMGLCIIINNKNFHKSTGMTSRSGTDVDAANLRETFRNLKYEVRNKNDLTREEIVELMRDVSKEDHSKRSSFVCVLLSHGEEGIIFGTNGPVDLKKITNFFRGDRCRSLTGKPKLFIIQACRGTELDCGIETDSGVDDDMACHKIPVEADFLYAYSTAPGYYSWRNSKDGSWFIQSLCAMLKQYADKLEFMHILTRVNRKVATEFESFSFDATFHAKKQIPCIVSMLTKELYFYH
Description: as §3

[10] = tested on: proteolytic cleavage of PARP (poly ADP-ribose polymerase) in Hela cells; assay: Inhibition of staurosporine-induced PARP cleavage in live Hela cells; assay type: cell-based
Summary of the method: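 HeLa cells in 96 well plates were exposed for 4 hours to the apoptosis inducer staurosporine with or without test compound. Fixed cells were stained with a fluorescein-labeled anti-cleaved PARP antibody and counterstained with Hoechst33342. Cellomics imaging gave the fraction of nuclei positive for cleaved PARP, and inhibition was computed relative to staurosporine-only treatment.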

Caspase-5 [11] = target: T5, Caspase-5; assay: Fluorometric enzymatic assay, active recombinant Caspase-5; assay type: biochemical; conditions: 10-point titration 0.1 nM to 3.3 μM, 30-minute incubation at 37° C.; read-out: IC50 values (μM) Caspase-5
Description: as §1, §2
Target sequence in this assay (P51878 whole entry, looked up): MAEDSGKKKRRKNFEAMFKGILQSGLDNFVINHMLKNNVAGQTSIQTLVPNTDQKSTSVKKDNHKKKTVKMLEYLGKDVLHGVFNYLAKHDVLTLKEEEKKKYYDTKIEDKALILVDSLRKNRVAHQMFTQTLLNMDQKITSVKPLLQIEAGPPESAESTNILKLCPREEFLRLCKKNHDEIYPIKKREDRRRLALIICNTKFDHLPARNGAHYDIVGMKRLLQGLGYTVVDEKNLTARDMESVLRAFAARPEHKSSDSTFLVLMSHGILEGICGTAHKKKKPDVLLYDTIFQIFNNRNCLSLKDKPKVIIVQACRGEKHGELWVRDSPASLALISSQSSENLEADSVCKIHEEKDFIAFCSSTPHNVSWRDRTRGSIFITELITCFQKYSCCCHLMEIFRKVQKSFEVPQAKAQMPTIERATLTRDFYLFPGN
Target sequence in this assay (P51878 whole entry, looked up): as above

Caspase-10 = Caspase-10 (Homo sapiens (Human), UniProt Q92851); assay: Fluorometric enzymatic assay, active recombinant Caspase-10; conditions: read-out: IC50 values (μM) Caspase-10; 10-point titration 0.1 nM to 3.3 μM, 30-minute incubation at 37° C.
Description: as §4

Caspase-6 = Caspase-6 (Homo sapiens (Human), UniProt P55212); assay: Fluorometric enzymatic assay, active recombinant Caspase-6; assay type: biochemical; conditions: 10-point titration 0.1 nM to 3.3 μM, 30-minute incubation at 37° C.; read-out: IC50 values (μM) Caspase-6
Description: as §1, §2

Glo3/7 = Glo3/7 assay; assay type: biochemical
Caspase-2 = Caspase-2 (Homo sapiens (Human), UniProt P42575); assay: Fluorometric enzymatic assay, active recombinant Caspase-2; assay type: biochemical; conditions: 10-point titration 0.1 nM to 3.3 μM, 30-minute incubation at 37° C.; read-out: IC50 values (μM) Caspase-2
Description: as §1, §2

Caspase-10, sequence (Q92851 220-415): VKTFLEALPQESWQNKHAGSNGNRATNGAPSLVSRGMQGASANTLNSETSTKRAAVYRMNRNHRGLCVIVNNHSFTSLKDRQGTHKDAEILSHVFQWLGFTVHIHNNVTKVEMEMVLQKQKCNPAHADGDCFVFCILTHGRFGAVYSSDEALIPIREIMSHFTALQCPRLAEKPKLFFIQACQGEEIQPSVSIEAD
Caspase-10, sequence (Q92851 416-521): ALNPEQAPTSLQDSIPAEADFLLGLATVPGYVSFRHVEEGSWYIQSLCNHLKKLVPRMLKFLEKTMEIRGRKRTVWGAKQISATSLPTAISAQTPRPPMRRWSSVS
Caspase-6, sequence (P55212 24-179): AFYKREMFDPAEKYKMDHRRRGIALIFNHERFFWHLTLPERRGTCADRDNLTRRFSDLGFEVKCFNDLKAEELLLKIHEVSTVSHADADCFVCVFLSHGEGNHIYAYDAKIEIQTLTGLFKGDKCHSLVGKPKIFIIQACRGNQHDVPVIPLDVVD
Caspase-6, sequence (P55212 194-293): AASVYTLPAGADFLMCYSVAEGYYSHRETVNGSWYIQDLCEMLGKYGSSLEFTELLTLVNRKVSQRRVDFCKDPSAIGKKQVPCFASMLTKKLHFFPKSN

CC(C)[C@H](NC(=O)[C@@H](NC(=O)[C@H](CC(=O)O)NC(=O)OCc1ccccc1)c1ccccc1)C(=O)N[C@H](/C=C/S(C)(=O)=O)CC(=O)O [Compound 53, Z-Asp-Phg-Val-Aspmethyl vinyl sulfone]
IC50 (Caspase-1 [1]): 2 µM
inhibitory activity towards Caspase-3 (Caspase-3 [2]; FIG. 5): high inhibitory activity
IC50 (Caspase-3 [2]; read-out: IC50 values (μM) Caspase-3, 10-point titration 0.1 nM to 3.3 μM, 30-minute incubation at 37° C.): 0.09 µM
IC50 (Caspase-9 [3]): > 10 µM
IC50 (Caspase-9 [4]): > 3.33 µM
IC50 (Caspase-8): > 3.33 µM
IC50 (Caspase-7 [5]): 0.8 µM
inhibitory activity towards Caspase-1 (Caspase-1 [6]; FIG. 5): inhibitory activity
IC50 (Caspase-1 [6]; read-out: IC50 values (μM) Caspase-1, 10-point titration 0.1 nM to 3.3 μM, 30-minute incubation at 37° C.): 2.1 µM
IC50 (Caspase-5 [7]): > 10 µM
inhibitory activity towards Caspase-7 (Caspase-7 [8]; FIG. 5): high inhibitory activity
IC50 (Caspase-7 [8]; read-out: IC50 values (μM) Caspase-7, 10-point titration 0.1 nM to 3.3 μM, 30-minute incubation at 37° C.): 0.8 µM
IC50 (Caspase-3 [9]; 30-minute incubation at 37° C., approximations of the average values, read-out: Caspase enzymatic activity, IC50 (uM) Caspase 3): 0.06 µM
selectivity of Caspase-3 over Caspase-7 based on IC50 values (Caspase-3 [9]; IC50 caspase-7 versus caspase-3): about 12 fold
IC50 (Caspase-3 [9]; read-out: IC50 caspase-3): 0.03 to 0.09 µM
effectivity in inhibiting PARP cleavage ([10]; Hela cells, staurosporine): highly effective relative to DEVD-fmk
inhibition at 50 µM ([10]; Homo sapiens, HeLa, 4 h, read-out: % inhibition of PARP cleavage at 50 uM compound, Hela cells, staurosporine 4 hours, 50 uM compound): > 50%
IC50 (Caspase-5 [11]): > 3.33 µM
IC50 (Caspase-10): > 3.33 µM
IC50 (Caspase-6): > 3.33 µM
IC50 (Glo3/7): 0.1 µM
IC50 (Caspase-2): > 3.33 µM
